Our source for the TGI values is PubChem BioAssay (NCI).

What all share (assay): inhibition of tumour cell growth, NCI panel, 48 h
For assay [1], the system named is A498 renal.
Assay [2] deals with A549 NSCLC.
For assay [3], the system named is DU-145 prostate.
Assay [4] relates to HCT-116 colon.
In assay [5] the test system is HL-60(TB) leukemia.
For assay [6], the system named is HOP-92 NSCLC.
In assay [7] the test system is M14 melanoma.
Assay [8] relates to MCF7 breast.
Assay [9] relates to OVCAR-3 ovarian.
The test system of assay [10] is SF-295 CNS.
Assay [11] concerns SF-539 CNS.
Assay [12] concerns SK-MEL-5 melanoma.
Assay [13] concerns SNB-19 CNS.
Assay [14] relates to SNB-75 CNS.
The test system of assay [15] is T-47D breast.
Assay [16] has as its system UACC-257 melanoma.
The test system of assay [17] is UACC-62 melanoma.
Assay [18] deals with UO-31 renal.
In assay [19] the test system is NCI-H460 lung.

Each structure is given as a SMILES string.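 Each compound was tested at five concentrations against cells in 96-well plates for 48 hours. TGI: total growth inhibition.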

Turning to `C/C(=N\NC(=S)N(C)CCN(C)C(=S)N/N=C(\C)c1ccccn1)c1ccccn1`, the TGI in [1] was determined as 3 µM; in [2] it was 13.8 µM; in assay [3], 13.1 µM; in assay [4], 11.5 µM; in [5] it was 3.95 µM; in assay [6] it was 16.4 µM. Besides, the TGI in assay [7] is > 100 µM; in assay [8], 18.3 µM; in assay [9], 9.53 µM; in [10] it was 19.6 µM; in assay [11], 11.8 µM; in [12], 2.16 µM. The TGI is 16.6 µM in [13]; 7.59 µM in assay [14]; 19 µM in assay [15]; 11 µM in assay [16]; 8.07 µM in assay [17]; 15.4 µM in assay [18].
As for `COC(=O)/C=C\C(C#N)(C#N)N=Cc1ccc(Br)s1`, the TGI in assay [1] was 31.5 µM; in [2], 45.4 µM; in [3] it was 24.5 µM; in assay [4], 34.8 µM; in assay [5], 5.04 µM; in assay [6], 4.67 µM. In addition, the TGI was 8.86 µM in [7]; 6.1 µM in [8]; 48 µM in assay [19]; 23.3 µM in [9]; 33 µM in assay [10]; 27.4 µM in assay [12]. Further, the TGI is 21.9 µM in assay [13]; 29.4 µM in assay [14]; > 30.6 µM in assay [15]; 28.6 µM in [16]; 24.9 µM in assay [17]; 7.18 µM in [18].
As for `CCOP(=O)(OCC)[C@H]1OC(C)(C)O[C@@H]1CO`, the TGI in assay [1], in [2], in assay [3], in [4], in assay [5] and in assay [6] was > 100 µM in each case. Besides, the TGI in assay [7], in [8], in [19], in assay [9], in assay [10] and in assay [11] was > 100 µM in each case. The TGI in [12], in assay [13], in assay [15], in assay [16] and in assay [17] was > 100 µM throughout.
In the case of `COC(=O)C1C2CC3C1C3C2C(=O)OC` (centres undefined), the TGI in [1], in [2], in [3], in assay [4], in [6] and in assay [7] was > 100 µM each time. The TGI in [8], in [19], in [9], in assay [10], in [11] and in assay [12] was > 100 µM throughout. Also, the TGI in [13], in [14], in [15], in assay [16], in assay [17] and in [18] was > 100 µM throughout.
Turning to `COCn1c(C)c(C)c2c(=O)oc(N(C)C)nc21`, the TGI in [1], in assay [2], in assay [3], in [4], in assay [5] and in assay [6] was > 100 µM in each case. Besides, the TGI in assay [7], in assay [8], in [19], in assay [10], in [11] and in assay [12] was > 100 µM each time. The TGI in [13], in [14], in [15], in assay [16], in assay [17] and in assay [18] was > 100 µM in each case.
Take `O=C(O)[C@@H]1NC[C@H]2C(Br)=NO[C@H]21`: the TGI in [1], in [2], in [3], in assay [4], in assay [5] and in assay [6] was > 100 µM in each case. Moreover, the TGI in [7], in [8], in assay [19], in [9], in assay [10] and in [12] was > 100 µM in each case. The TGI in [13], in assay [14], in [15], in assay [16], in [17] and in assay [18] was > 100 µM in each case.
Consider `NS(=O)(=O)c1ccc(Nc2c3ccccc3nc3c(C(=O)NCCO)cccc23)cc1`, for which the TGI was 0.229 µM in assay [1]; 0.448 µM in [2]; 0.586 µM in assay [3]; 0.412 µM in assay [4]; > 1 µM in assay [5]; 0.618 µM in assay [6]. The TGI in [7] came to 0.326 µM; in [8], 0.176 µM; in assay [19], 0.186 µM; in [9], 0.318 µM; in assay [10], 0.605 µM; in assay [11], 0.27 µM. In addition, the TGI was found to be 0.221 µM in assay [12]; 0.355 µM in [13]; 0.169 µM in [15]; 0.315 µM in assay [16]; 0.303 µM in assay [17]; 0.532 µM in assay [18].
For `Nc1ncnc2c1ncn2[C@H]1CC[C@@H](NO)C1`, the TGI in assay [1], in assay [2], in [3], in assay [4], in [6] and in [7] was > 100 µM throughout. The TGI in [8], in assay [19], in assay [9], in [10], in assay [11] and in assay [12] was > 100 µM each time. For the same compound, the TGI in assay [13], in [14], in [15], in assay [16], in assay [17] and in assay [18] was > 100 µM throughout.
As to `COC(=O)Nc1nc2ccc(NC(=O)c3cccs3)cc2[nH]1`, the TGI in assay [1] was 88.7 µM; in [2], > 100 µM; in [3] it was > 100 µM; in [4] it was > 100 µM; in assay [5] it was > 100 µM; in [6], 40.7 µM. The TGI was > 100 µM in assay [7]; > 100 µM in assay [8]; > 100 µM in [19]; 47.3 µM in assay [9]; > 100 µM in assay [10]; 60.2 µM in assay [11]. For the same compound, the TGI in assay [12] was 82.5 µM; in [13] it was > 100 µM; in [14], 65 µM; in assay [15], 88.1 µM; in [17], > 100 µM; in assay [18] it was 36.2 µM.
Regarding `COc1ccc(-n2c(N)c(C#N)c(C#N)c2-c2ccccc2)cc1`, the TGI was > 100 µM in assay [1]; > 100 µM in assay [2]; > 100 µM in assay [3]; > 100 µM in [4]; > 100 µM in assay [5]; 76.5 µM in [6]. The TGI in [7], in assay [8], in [9], in assay [10], in assay [11] and in assay [12] was > 100 µM in each case. The TGI in assay [13] was > 100 µM; in assay [14], 68.6 µM; in assay [15] it was > 100 µM; in assay [16] it was > 100 µM; in [17], > 100 µM; in assay [18] it was > 100 µM.
For `O=c1[nH]cnc2c1ncn2[C@@H]1C[C@H]1CO`, the TGI in assay [1], in assay [2], in assay [3], in assay [4], in assay [5] and in assay [6] was > 100 µM in each case. The TGI in [7], in assay [8], in [19], in [11], in assay [12] and in assay [13] was > 100 µM each time. Besides, the TGI in assay [14], in [15], in assay [16], in assay [17] and in assay [18] was > 100 µM in each case.
Regarding `CC(C)=CCN1c2ccc(Cl)cc2NC(=O)CC1C` (centres undefined), the TGI is 49 µM in [1]; > 100 µM in assay [2]; > 100 µM in assay [3]; 38 µM in assay [4]; > 100 µM in assay [5]; 37.8 µM in [6]. The TGI was 36.1 µM in [7]; 45.6 µM in assay [8]; 37.6 µM in [19]; 36 µM in assay [9]; > 100 µM in [10]; 45.4 µM in assay [11]. Besides, the TGI in assay [12] was 32.2 µM; in assay [13], > 100 µM; in assay [15], > 100 µM; in assay [16], 47.3 µM; in [18], > 100 µM.
As to `Nc1nc(Nc2ccccc2)sc1C(=O)c1cccs1`, the TGI in [1] turned out to be 38.8 µM; in assay [2] it was 41.7 µM; in [3] it was 30.8 µM; in assay [4] it was 18.2 µM; in assay [5], 12.5 µM; in assay [6], 71 µM. For the same compound, the TGI was 36.2 µM in assay [7]; 24.2 µM in assay [8]; 24.5 µM in assay [19]; > 28.2 µM in [9]; 66.6 µM in assay [10]; 25.5 µM in assay [11]. Further, the TGI was 15.9 µM in [12]; 46.5 µM in [13]; > 59.3 µM in assay [15]; 32.5 µM in [16]; 31 µM in assay [17]; 36.2 µM in assay [18].
For `COc1cccc(Cc2cc(=O)c3ccc(C)nc3[nH]2)c1`, the TGI in assay [1], in assay [2], in [3], in assay [4], in [5] and in [6] was > 100 µM each time. Besides, the TGI in assay [7], in [8], in assay [19], in assay [9], in assay [10] and in [12] was > 100 µM in each case. Besides, the TGI in assay [13], in [14], in [15], in [16], in [17] and in [18] was > 100 µM throughout.
For `CCOC(=O)C1=CC(C)(C(=O)OCC)Nc2c(nc(OC)[nH]c2=O)N1` (centres undefined), the TGI in [1], in assay [2], in assay [3], in assay [4], in assay [6] and in [7] was > 10 µM each time. Moreover, the TGI in assay [8], in assay [19], in [9], in assay [10], in [11] and in [12] was > 10 µM throughout. Also, the TGI in [13], in assay [14], in assay [15], in [16] and in assay [18] was > 10 µM throughout.
With `Cc1ccc2[nH]c3c(c2c1)C1CCC(C(C)(C)C)CC1C1C(=O)N(c2ccc4c(c2)OCO4)C(=O)C31` (centres undefined), the TGI was determined as 3.48 µM in [1]; 6.38 µM in assay [2]; 9.88 µM in assay [3]; 6.36 µM in assay [4]; 11.9 µM in assay [5]; 6.22 µM in assay [6]. In addition, the TGI in assay [7] worked out at 17.2 µM; in assay [8] it was 12.4 µM; in [19], 3.27 µM; in assay [9], 3.08 µM; in assay [10], 9.85 µM; in assay [11], 2.74 µM. The TGI is 22.9 µM in [12]; 7.97 µM in [13]; 3.94 µM in [15]; 23.7 µM in assay [16]; 22.9 µM in assay [17]; 7.28 µM in assay [18].
